Test results as given in PubChem BioAssay (NCI).
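Where inhibition never reached the appropriate level, the endpoint shown equals the highest concentration tested. Otherwise, values were interpolated linearly from a five-concentration, 48-hour dose response in 96-well plates. GI50 marks 50% less growth. Definition used: TGI = concentration required for complete inhibition of growth.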

Experiments:
Assay in all cases: growth of human tumour cells (NCI), 48 h
HOP-62 NSCLC = tested on: HOP-62 NSCLC
SK-OV-3 ovarian = tested on: SK-OV-3 ovarian
OVCAR-5 ovarian = tested on: OVCAR-5 ovarian
SNB-75 CNS = tested on: SNB-75 CNS
NCI-H226 lung = tested on: NCI-H226 lung
EKVX NSCLC = tested on: EKVX NSCLC
MOLT-4 leukemia = tested on: MOLT-4 leukemia
OVCAR-4 ovarian = tested on: OVCAR-4 ovarian
SF-539 CNS = tested on: SF-539 CNS
HCT-116 colon = tested on: HCT-116 colon

| Structure (SMILES) | GI50 (HOP-62 NSCLC) [µM] | TGI (HOP-62 NSCLC) [µM] | GI50 (SK-OV-3 ovarian) [µM] | TGI (SK-OV-3 ovarian) [µM] | GI50 (OVCAR-5 ovarian) [µM] | TGI (OVCAR-5 ovarian) [µM] | GI50 (SNB-75 CNS) [µM] | TGI (SNB-75 CNS) [µM] | GI50 (NCI-H226 lung) [µM] | TGI (NCI-H226 lung) [µM] | GI50 (EKVX NSCLC) [µM] | TGI (EKVX NSCLC) [µM] | GI50 (MOLT-4 leukemia) [µM] | TGI (MOLT-4 leukemia) [µM] | GI50 (OVCAR-4 ovarian) [µM] | TGI (OVCAR-4 ovarian) [µM] | GI50 (SF-539 CNS) [µM] | TGI (SF-539 CNS) [µM] | GI50 (HCT-116 colon) [µM] | TGI (HCT-116 colon) [µM] |
| --- | --- | --- | --- | --- | --- | --- | --- | --- | --- | --- | --- | --- | --- | --- | --- | --- | --- | --- | --- | --- |
| COc1ccc(-c2nn3ncccc3c2-c2ccnc(Nc3ccc(F)c(F)c3)n2)cc1 | 14.1 | > 25 | 10.5 | > 25 | 11.6 | > 25 | 8.49 | > 25 | 13.9 | > 25 | 5.06 | > 22.7 | 8.45 | > 25 | 12.4 | > 25 | > 19.2 | > 25 | 7.15 | > 25 |
| CC(C)Cn1cnc2c(N)nc3ccccc3c21 | 22.5 | > 64.1 | > 100 | > 100 | 65.4 | > 100 | 41.4 | > 100 | 73.6 | > 100 | 26.2 | > 100 | > 64.4 | > 100 | 67.2 | > 100 | 42.9 | > 100 | 19.8 | > 73.1 |
| COCCn1c(Nc2ccc(C(=O)NO)cc2)nc2ccccc21 | 4.58 | 55.1 | 3.45 | 20.2 | 1.69 | 8.23 | 2.62 | 19.1 | 13.7 | 36.9 | 1.89 | 21.4 | 3.86 | > 100 | 16.1 | > 100 | 4.56 | 25.1 | 2.11 | 6.54 |
| CC1=NC2(C(=O)O)C3(C(=O)O)N=C(C)OC3(C(F)(F)F)C2(C(F)(F)F)O1 (stereo not given) |  | > 100 |  | > 100 |  | > 100 |  | > 100 |  | > 100 |  | > 100 |  | > 100 |  | > 100 |  | > 100 |  | > 100 |
